{"source": "ChEMBL document CHEMBL5137133", "about": "“Effects of the Anthocyanin Hirsutidin on Gastric Ulcers: Improved Healing through Antioxidant Mechanisms” (J Nat Prod, 2022)", "key": {"Rattus norvegicus [1]": {"tested_on": "Rattus norvegicus", "experiment": "Anti-ulcer activity in Wistar rat model of ethanol-induced gastric ulcer assessed as attenuation of TNFalpha level at 10 to 20 mg/kg, po administered once daily for 7 days followed by ethanol injection after 1 hr post last dose and measured after 4 hrs by ELISA", "format": "functional", "conditions": "dose 10-20 mg/kg, time 173 hrs"}, "[2]": {"experiment": "Acute toxicity in po dosed mouse assessed as morbidity", "format": "organism-based", "conditions": "in vivo"}, "[3]": {"experiment": "Acute toxicity in po dosed mouse assessed as mortality", "format": "organism-based", "conditions": "in vivo"}, "Rattus norvegicus [4]": {"tested_on": "Rattus norvegicus", "experiment": "Anti-ulcer activity in Wistar rat model of ethanol-induced gastric ulcer assessed as increase in gastric pH at 10 mg/kg, po administered once daily for 7 days followed by ethanol injection after 1 hr post last dose and measured after 4 hrs", "format": "functional", "conditions": "time 173 hrs"}, "Rattus norvegicus [5]": {"tested_on": "Rattus norvegicus", "experiment": "Anti-ulcer activity in Wistar rat model of ethanol-induced gastric ulcer assessed as increase in gastric pH at 20 mg/kg, po administered once daily for 7 days followed by ethanol injection after 1 hr post last dose", "format": "functional", "conditions": "time 173 hrs"}, "Rattus norvegicus [6]": {"tested_on": "Rattus norvegicus", "experiment": "Anti-ulcer activity in Wistar rat model of ethanol-induced gastric ulcer assessed as reduction in total acidity levels at 10 to 20 mg/kg, po administered once daily for 7 days followed by ethanol injection after 1 hr post last dose and measured after 4 hrs", "format": "functional", "design": "scale not given: the % may be the effect or the level left", "conditions": "dose 10-20 mg/kg, time 173 hrs"}, "Rattus norvegicus [7]": {"tested_on": "Rattus norvegicus", "experiment": "Anti-ulcer activity in Wistar rat model of ethanol-induced gastric ulcer assessed as reduction in ulcer score index at 10 to 20 mg/kg, po administered once daily for 7 days followed by ethanol injection after 1 hr post last dose and measured after 4 hrs", "format": "functional, organism-based", "conditions": "dose 10-20 mg/kg, time 173.0 hrs"}, "Rattus norvegicus [8]": {"tested_on": "Rattus norvegicus", "experiment": "Anti-ulcer activity in Wistar rat model of ethanol-induced gastric ulcer assessed as restoration of endogenous GSH levels at 10 to 20 mg/kg, po administered once daily for 7 days followed by ethanol injection after 1 hr post last dose and measured after 4 hrs by Ellman's method", "format": "functional, organism-based", "conditions": "dose 10-20 mg/kg, time 173.0 hrs"}, "Rattus norvegicus [9]": {"tested_on": "Rattus norvegicus", "experiment": "Anti-ulcer activity in Wistar rat model of ethanol-induced gastric ulcer assessed as restoration of endogenous SOD levels at 10 to 20 mg/kg, po administered once daily for 7 days followed by ethanol injection after 1 hr post last dose and measured after 4 hrs", "format": "functional, organism-based", "conditions": "dose 10-20 mg/kg, time 173.0 hrs"}, "Rattus norvegicus [10]": {"tested_on": "Rattus norvegicus", "experiment": "Anti-ulcer activity in Wistar rat model of ethanol-induced gastric ulcer assessed as restoration of endogenous CAT levels at 10 to 20 mg/kg, po administered once daily for 7 days followed by ethanol injection after 1 hr post last dose and measured after 4 hrs by H2O2 decomposition assay", "format": "functional, organism-based", "conditions": "dose 10-20 mg/kg, time 173.0 hrs"}, "Rattus norvegicus [11]": {"tested_on": "Rattus norvegicus", "experiment": "Anti-ulcer activity in Wistar rat model of ethanol-induced gastric ulcer assessed as reduction in MDA levels at 10 to 20 mg/kg, po administered once daily for 7 days followed by ethanol injection after 1 hr post last dose and measured after 4 hrs by Wills method", "format": "functional", "design": "scale not given: the % may be the effect or the level left", "conditions": "dose 10-20 mg/kg, time 173 hrs"}, "Rattus norvegicus [12]": {"tested_on": "Rattus norvegicus", "experiment": "Anti-ulcer activity in Wistar rat model of ethanol-induced gastric ulcer assessed as reduction in MPO levels at 10 to 20 mg/kg, po administered once daily for 7 days followed by ethanol injection after 1 hr post last dose and measured after 4 hrs", "format": "functional, organism-based", "conditions": "dose 10-20 mg/kg, time 173.0 hrs"}, "Rattus norvegicus [13]": {"tested_on": "Rattus norvegicus", "experiment": "Anti-ulcer activity in Wistar rat model of ethanol-induced gastric ulcer assessed as increase in PGE2 levels at 10 to 20 mg/kg, po administered once daily for 7 days followed by ethanol injection after 1 hr post last dose and measured after 4 hrs by ELISA", "format": "functional, organism-based", "conditions": "dose 10-20 mg/kg, time 173.0 hrs"}, "Rattus norvegicus [14]": {"tested_on": "Rattus norvegicus", "experiment": "Anti-ulcer activity in Wistar rat model of ethanol-induced gastric ulcer assessed as protection of NO depletion at 10 to 20 mg/kg, po administered once daily for 7 days followed by ethanol injection after 1 hr post last dose and measured after 4 hrs by ELISA", "format": "functional", "conditions": "dose 10-20 mg/kg, time 173 hrs"}, "Rattus norvegicus [15]": {"tested_on": "Rattus norvegicus", "experiment": "Anti-ulcer activity in Wistar rat model of ethanol-induced gastric ulcer assessed as attenuation of AST level at 10 to 20 mg/kg, po administered once daily for 7 days followed by ethanol injection after 1 hr post last dose and measured after 4 hrs by ELISA", "format": "functional", "conditions": "dose 10-20 mg/kg, time 173 hrs"}, "Rattus norvegicus [16]": {"tested_on": "Rattus norvegicus", "experiment": "Anti-ulcer activity in Wistar rat model of ethanol-induced gastric ulcer assessed as attenuation of ALT level at 10 to 20 mg/kg, po administered once daily for 7 days followed by ethanol injection after 1 hr post last dose and measured after 4 hrs by ELISA", "format": "functional", "conditions": "dose 10-20 mg/kg, time 173 hrs"}, "Rattus norvegicus [17]": {"tested_on": "Rattus norvegicus", "experiment": "Anti-ulcer activity in Wistar rat model of ethanol-induced gastric ulcer assessed as attenuation of ALP level at 10 to 20 mg/kg, po administered once daily for 7 days followed by ethanol injection after 1 hr post last dose and measured after 4 hrs by ELISA", "format": "functional", "conditions": "dose 10-20 mg/kg, time 173 hrs"}, "Rattus norvegicus [18]": {"tested_on": "Rattus norvegicus", "experiment": "Anti-ulcer activity in Wistar rat model of ethanol-induced gastric ulcer assessed as reduction in serum IL-1beta level at 10 to 20 mg/kg, po administered once daily for 7 days followed by ethanol injection after 1 hr post last dose and measured after 4 hrs by ELISA", "format": "functional, organism-based", "conditions": "dose 10-20 mg/kg, time 173.0 hrs"}, "Rattus norvegicus [19]": {"tested_on": "Rattus norvegicus", "experiment": "Anti-ulcer activity in Wistar rat model of ethanol-induced gastric ulcer assessed as reduction in serum IL-6 level at 10 to 20 mg/kg, po administered once daily for 7 days followed by ethanol injection after 1 hr post last dose and measured after 4 hrs by ELISA", "format": "functional, organism-based", "conditions": "dose 10-20 mg/kg, time 173.0 hrs"}, "Rattus norvegicus [20]": {"tested_on": "Rattus norvegicus", "experiment": "Anti-ulcer activity in Wistar rat model of ethanol-induced gastric ulcer assessed as protection against gastric tissue damages at 10 to 20 mg/kg, po administered once daily for 7 days followed by ethanol injection after 1 hr post last dose and measured after 4 hrs by ELISA", "format": "functional, organism-based", "conditions": "dose 10-20 mg/kg, time 173.0 hrs"}}, "note": "Active and inactive are the calls of the source. The calls are words filed in the database; no cut-off is given here."}
{"smiles": "COc1cc(O)c2cc(O)c(-c3cc(OC)c(O)c(OC)c3)[o+]c2c1", "values": [{"measurement": "Activity", "setting": "Rattus norvegicus [1]", "result": 27.59, "unit": "%"}, {"measurement": "Activity", "setting": "[2]", "result": "Non-Toxic"}, {"measurement": "Activity", "setting": "[3]", "result": "Non-Toxic"}, {"measurement": "pH", "setting": "Rattus norvegicus [4]", "result": 7.17}, {"measurement": "pH", "setting": "Rattus norvegicus [5]", "result": 6.36}, {"measurement": "Activity", "setting": "Rattus norvegicus [6]", "result": 37.76, "unit": "%"}, {"measurement": "Activity", "setting": "Rattus norvegicus [7]", "result": "Active"}, {"measurement": "Activity", "setting": "Rattus norvegicus [8]", "result": "Active"}, {"measurement": "Activity", "setting": "Rattus norvegicus [9]", "result": "Active"}, {"measurement": "Activity", "setting": "Rattus norvegicus [10]", "result": "Active"}, {"measurement": "Activity", "setting": "Rattus norvegicus [11]", "result": 49.25, "unit": "%"}, {"measurement": "Activity", "setting": "Rattus norvegicus [12]", "result": "Active"}, {"measurement": "Activity", "setting": "Rattus norvegicus [13]", "result": "Active"}, {"measurement": "Activity", "setting": "Rattus norvegicus [14]", "result": 85.1, "unit": "%"}, {"measurement": "Activity", "setting": "Rattus norvegicus [15]", "result": 35.3, "unit": "%"}, {"measurement": "Activity", "setting": "Rattus norvegicus [16]", "result": 38.85, "unit": "%"}, {"measurement": "Activity", "setting": "Rattus norvegicus [17]", "result": 47.68, "unit": "%"}, {"measurement": "Activity", "setting": "Rattus norvegicus [18]", "result": "Active"}, {"measurement": "Activity", "setting": "Rattus norvegicus [19]", "result": "Active"}, {"measurement": "Activity", "setting": "Rattus norvegicus [20]", "result": "Active"}]}
